From DBAASP
Values after ≈ are worked out from the molar mass of the structure shown. Values joined by “and” are separate entries in the source; they are usually repeats but may differ in a detail not shown here. Equal entries are not always repeated.

Tests used:
Test in all cases: ≥ marks a high value that may be exact or a test limit, other limits are often not marked, values filed in µg/mL are converted to µM
Bacillus subtilis = system: Bacillus subtilis
[1] = system: Klebsiella pneumoniae ATCC 13883
[2] = system: Escherichia coli DH5alpha
[3] = system: Staphylococcus aureus ATCC 25923
[4] = system: Staphylococcus aureus USA 300
[5] = system: Pseudomonas aeruginosa PAO1
[6] = system: Escherichia coli ATCC 25922
[7] = system: Candida albicans ATCC 2002
[8] = system: Pseudomonas aeruginosa CMCCB 10104
[9] = system: Staphylococcus aureus NCTC 8325
[10] = system: Candida albicans ATCC 90028
[11] = system: Salmonella enterica subsp. enterica serovar Typhimurium ATCC 14028
[12] = system: Acinetobacter baumannii ATCC 19606
Bacillus subtilis 168 = system: Bacillus subtilis 168
Staphylococcus aureus = system: Staphylococcus aureus
Micrococcus luteus = system: Micrococcus luteus

SMILES	MIC [1] [µM]	MIC [3] [µM]	MIC [4] [µM]	MIC [5]	MIC [6]	other results
CC[C@H](C)[C@@H]1NC(=O)CNC(=O)[C@H](Cc2c[nH]c3ccccc23)NC(=O)[C@@H]2CSSC[C@H](NC(=O)[C@H](C)N)C(=O)N[C@@H](CCC(N)=O)C(=O)N[C@@H](Cc3ccccc3)C(=O)N[C@@H](Cc3c[nH]c4ccccc34)C(=O)N[C@@H](CO)C(=O)N[C@H]3CSSC[C@H](NC(=O)[C@H](Cc4ccc(O)cc4)NC(=O)[C@H](CCCCN)NC(=O)[C@H](Cc4ccc(O)cc4)NC(=O)[C@H](CCC(N)=O)NC1=O)C(=O)N[C@@H](CCC(N)=O)C(=O)N[C@H](C(=O)N[C@@H](CCC(N)=O)C(=O)O)CSSC[C@H](NC(=O)[C@H](CO)NC(=O)[C@H](CO)NC(=O)[C@H](CC(N)=O)NC3=O)C(=O)N[C@@H]([C@@H](C)CC)C(=O)N[C@@H](CO)C(=O)N[C@@H](CCCN=C(N)N)C(=O)NCC(=O)N[C@@H](Cc1ccc(O)cc1)C(=O)N[C@@H](CCCN=C(N)N)C(=O)N[C@@H](CCC(N)=O)C(=O)NCC(=O)N[C@@H](Cc1ccc(O)cc1)C(=O)N2 [ACQFWSCNSSCISRGYRQGYCWGIQYKYCQCQ]	13.1 (≈ 49.9 µg/mL)	> 13.1				MIC (Bacillus subtilis): 13.1 µM (≈ 49.9 µg/mL); MIC [2]: 13.1 µM (≈ 49.9 µg/mL)
CC[C@H](C)[C@H](NC(=O)[C@H](CCCCN)NC(=O)[C@H](CCC(N)=O)NC(=O)[C@@H](NC(=O)[C@@H](NC(=O)[C@H](CCCCN)NC(=O)[C@H](CCCN=C(N)N)NC(=O)[C@H](Cc1ccccc1)NC(=O)CN)[C@@H](C)CC)C(C)C)C(=O)N[C@@H](CCCN=C(N)N)C(=O)N[C@@H](CC(=O)O)C(=O)N[C@@H](Cc1ccccc1)C(=O)N[C@@H](CC(C)C)C(=O)N[C@@H](CCCN=C(N)N)C(=O)N[C@@H](CC(N)=O)C(=O)N[C@@H](CC(C)C)C(=O)N[C@H](C(N)=O)C(C)C [GFRKIVQKIRDFLRNLV]	3.1 (≈ 6.51 µg/mL)		3.1 (≈ 6.51 µg/mL)	> 50 µM	4.4 µM (≈ 9.25 µg/mL)	
CC[C@H](C)[C@H](NC(=O)CN)C(=O)N[C@@H](CC(C)C)C(=O)N[C@@H](CC(=O)O)C(=O)N[C@H](C(=O)N[C@@H](Cc1ccccc1)C(=O)N[C@@H](CCCCN)C(=O)N[C@@H](CC(N)=O)C(=O)N[C@@H](CCSC)C(=O)N[C@@H](C)C(=O)N[C@@H](CC(C)C)C(=O)N[C@@H](CC(N)=O)C(=O)N[C@@H](C)C(=O)N[C@@H](C)C(=O)N[C@@H](CCCCN)C(=O)N[C@@H](CO)C(=O)N[C@@H](C)C(=O)NCC(=O)N[C@H](C(=O)N[C@@H](CO)C(=O)N[C@H](C(=O)N[C@@H](CC(C)C)C(=O)N[C@@H](CC(N)=O)C(=O)N[C@@H](C)C(=O)N[C@@H](CC(C)C)C(=O)N[C@@H](CO)C(=O)N[C@H]1CSSC[C@@H](C(=O)O)NC(=O)[C@H]([C@@H](C)O)NC(=O)[C@H](CCCCN)NC(=O)[C@H](CO)NC(=O)[C@H](CC(C)C)NC(=O)[C@H](CCCCN)NC1=O)C(C)C)C(C)C)[C@@H](C)O [GILDTFKNMALNAAKSAGVSVLNALSCKLSKTC]		3.59 (≈ 12.1 µg/mL)			3.59 µM (≈ 12.1 µg/mL)	MIC [7]: 1.78 µM (≈ 6 µg/mL); MIC [8]: 3.59 µM (≈ 12.1 µg/mL)
CC[C@H](C)[C@@H]1NC(=O)[C@H](CCCCN)NC(=O)[C@@H](NC(=O)[C@H](C)NC(=O)[C@@H](NC(=O)[C@H](CC(C)C)NC(=O)[C@H](CC(=O)O)NC(=O)[C@@H](NC(=O)CNC(=O)[C@H](CC(C)C)NC(=O)[C@H](CCCCN)NC(=O)[C@@H](NC(=O)[C@H](CC(C)C)NC(=O)[C@H](CC(=O)O)NC(=O)[C@H](CCCCN)NC(=O)CNC(=O)[C@H](CC(C)C)NC(=O)CNC(=O)[C@H](CCCCN)NC(=O)[C@H](CO)NC(=O)[C@H](C)NC(=O)[C@H](Cc2ccccc2)NC(=O)[C@H](CCCCN)NC(=O)[C@H](C)NC(=O)[C@H](C)NC(=O)CNC(=O)[C@H](CCCN=C(N)N)NC(=O)[C@H](CC(C)C)NC(=O)[C@@H](NC(=O)[C@H](CO)NC(=O)[C@H](Cc2ccccc2)NC(=O)[C@H](CC(C)C)NC(=O)CN)[C@@H](C)CC)[C@@H](C)O)C(C)C)C(C)C)CSSC[C@@H](C(=O)O)NC(=O)[C@H](CCC(N)=O)NC(=O)[C@H](CCCCN)NC(=O)[C@H](CO)NC1=O [GLFSILRGAAKFASKGLGKDLTKLGVDLVACKISKQC]					1 µM (≈ 3.84 µg/mL)	MIC [9]: 1 µM (≈ 3.84 µg/mL); MIC [10]: 29 µM (≈ 111 µg/mL)
CC(C)C[C@H](NC(=O)[C@H](CC(C)C)NC(=O)[C@H](CCCCN)NC(=O)[C@H](CC(C)C)NC(=O)CNC(=O)[C@H](CC(C)C)NC(=O)[C@H](CO)NC(=O)[C@H](CC(C)C)NC(=O)[C@H](CC(C)C)NC(=O)[C@H](CC(C)C)NC(=O)[C@H](CO)NC(=O)[C@H](CC(C)C)NC(=O)[C@@H](N)CCCCN)C(N)=O [KLSLLLSLGLKLL]	25 (≈ 35.2 µg/mL)		1.6 (≈ 2.26 µg/mL)	> 25 µM	> 25 µM	

Continued, in another order:

MIC [1] [µM]	MIC [3] [µM]	MIC [4] [µM]	MIC [5]	MIC [6]	SMILES	other results
	3.61 (≈ 12.1 µg/mL)			3.61 µM (≈ 12.1 µg/mL)	CC[C@H](C)[C@H](NC(=O)[C@@H](NC(=O)[C@H](CC(=O)O)NC(=O)[C@H](CC(C)C)NC(=O)[C@H](CC(C)C)NC(=O)CN)[C@@H](C)O)C(=O)N[C@@H](CCCCN)C(=O)N[C@@H](CC(N)=O)C(=O)N[C@@H](CCSC)C(=O)N[C@@H](C)C(=O)N[C@@H](CC(C)C)C(=O)N[C@@H](CC(N)=O)C(=O)N[C@@H](C)C(=O)N[C@@H](C)C(=O)N[C@@H](CCCCN)C(=O)N[C@@H](CO)C(=O)N[C@@H](C)C(=O)NCC(=O)N[C@H](C(=O)N[C@@H](CO)C(=O)N[C@H](C(=O)N[C@@H](CC(C)C)C(=O)N[C@@H](CC(N)=O)C(=O)N[C@@H](CO)C(=O)N[C@@H](CC(C)C)C(=O)N[C@@H](CO)C(=O)N[C@H]1CSSC[C@@H](C(=O)O)NC(=O)[C@H]([C@@H](C)O)NC(=O)[C@H](CCCCN)NC(=O)[C@H](CO)NC(=O)[C@H](CC(C)C)NC(=O)[C@H](CCCCN)NC1=O)C(C)C)C(C)C [GLLDTIKNMALNAAKSAGVSVLNSLSCKLSKTC]	MIC [7]: 3.61 µM (≈ 12.1 µg/mL); MIC [8]: 1.79 µM (≈ 6 µg/mL)
3.1 (≈ 4.02 µg/mL)		0.78 (≈ 1.01 µg/mL)	> 25 µM	3.1 µM (≈ 4.02 µg/mL)	CC(C)C[C@H](NC(=O)[C@H](CC(C)C)NC(=O)[C@H](CCCCN)NC(=O)CNC(=O)[C@H](CC(C)C)NC(=O)[C@H](CC(C)C)NC(=O)[C@H](CO)NC(=O)[C@H](CC(C)C)NC(=O)[C@H](C)NC(=O)[C@H](CO)NC(=O)[C@H](CC(C)C)NC(=O)[C@H](CC(C)C)NC(=O)CN)C(N)=O [GLLSALSLLGKLL]	
3.1 (≈ 4.02 µg/mL)		0.78 (≈ 1.01 µg/mL)	> 25 µM	3.1 µM (≈ 4.02 µg/mL)	CC(C)C[C@H](NC(=O)[C@H](C)NC(=O)[C@H](CCCCN)NC(=O)CNC(=O)[C@H](CC(C)C)NC(=O)[C@H](CC(C)C)NC(=O)[C@H](CO)NC(=O)[C@H](CC(C)C)NC(=O)[C@H](CC(C)C)NC(=O)[C@H](CO)NC(=O)[C@H](CC(C)C)NC(=O)[C@H](CC(C)C)NC(=O)CN)C(N)=O [GLLSLLSLLGKAL]	
	7.08 (≈ 18.2 µg/mL)			3.54 µM (≈ 9.09 µg/mL)	CC[C@H](C)[C@H](N)C(=O)N[C@@H](CC(=O)O)C(=O)N1CCC[C@H]1C(=O)N[C@@H](Cc1ccccc1)C(=O)N[C@H](C(=O)N[C@@H](C)C(=O)NCC(=O)N[C@H](C(=O)N[C@@H](C)C(=O)N[C@@H](C)C(=O)N[C@@H](CCC(=O)O)C(=O)N[C@@H](CCSC)C(=O)N[C@@H](CCSC)C(=O)N[C@@H](CCC(N)=O)C(=O)N[C@@H](Cc1cnc[nH]1)C(=O)N[C@H](C(=O)N[C@@H](Cc1ccc(O)cc1)C(=O)N[C@H]1CSSC[C@@H](C(=O)O)NC(=O)[C@H](CCCCN)NC(=O)[C@H](CCCCN)NC(=O)[C@H](CO)NC(=O)[C@H](C)NC(=O)[C@H](C)NC1=O)C(C)C)C(C)C)C(C)C [IDPFVAGVAAEMMQHVYCAASKKC]	MIC [7]: 7.08 µM (≈ 18.2 µg/mL); MIC [8]: 7.08 µM (≈ 18.2 µg/mL)
30 (≈ 51.2 µg/mL)	> 30		20.7 µM and 23.7 µM	7.3 µM and 8.9 µM	CC(C)C[C@H](NC(=O)[C@H](CCCCN)NC(=O)[C@H](CCCCN)NC(=O)[C@H](C)NC(=O)[C@H](Cc1c[nH]c2ccccc12)NC(=O)CNC(=O)[C@H](CCCCN)NC(=O)[C@@H](N)CCCCN)C(=O)N[C@@H](C)C(=O)N[C@@H](Cc1ccccc1)C(=O)N[C@@H](C)C(=O)N[C@@H](Cc1ccccc1)C(=O)NCC(=O)N[C@@H](CCCCN)C(=O)N[C@@H](CCCCN)C(=O)O [KKGWAKKLAFAFGKK]	MIC [11]: 22.2 µM (≈ 37.9 µg/mL); MIC [12]: > 30 µM
				31.4 µM (≈ 62.5 µg/mL)	CC[C@H](C)[C@H](NC(=O)[C@H](Cc1ccccc1)NC(=O)[C@H](CCCCN)NC(=O)[C@H](CCCCN)NC(=O)[C@H](CCC(=O)O)NC(=O)[C@H](CC(N)=O)NC(=O)[C@H](Cc1ccc(O)cc1)NC(=O)[C@H](CCCCN)NC(=O)[C@H](CC(N)=O)NC(=O)[C@H](CC(C)C)NC(=O)[C@H](CCC(=O)O)NC(=O)[C@H](CC(N)=O)NC(=O)[C@H](CC(C)C)NC(=O)[C@H](Cc1ccccc1)NC(=O)[C@H](CO)NC(=O)[C@@H](N)[C@@H](C)O)C(=O)O [TSFLNELNKYNEKKFI]	MIC (Bacillus subtilis 168): 15.7 µM (≈ 31.2 µg/mL); MIC (Staphylococcus aureus): 4.17 µM (≈ 8.3 µg/mL); MIC (Micrococcus luteus): 31.4 µM (≈ 62.5 µg/mL)
